The values that follow come from paper PMC5749684, “Tetrahydrocarbazoles are a novel class of potent P-type ATPase inhibitors with antifungal activity” (PLoS ONE, 2018).

Assay [1] has as its system yeasts Saccharomyces cerevisiae, Candida albicans, Candida krusei and Candida glabrata. Put plainly: Fungal growth inhibition. To be noted: species not given; for MIC: antifungal activity. The assay is classed as cell-based. The source says: (§1) Fungal isolates were purchased from American Type Culture Collection, except for C. glabrata strain Cg003, which was kindly provided by Julius Subik, Comenius University in Bratislava, Slovak Republic. Cg003 is a clinical isolate, characterized to be resistant to fluconazole and itraconazole due to overexpression of the multidrug resistance efflux pumps Cdr1p and Cdr2p. Saccharomyces cerevisiae (ATCC 9763), Candida albicans (ATCC 90028), Candida albicans (SC5314), Candida glabrata (ATCC 90030), Candida glabrata (Cg003) and Candida krusei (ATCC 6258) were grown in Sabouraud broth (40 g/L D-glucose, 10 g/L peptone, pH 5.6) or YPD (10 g/L yeast extract, 20 g/L Bacto-peptone, 20 g/L glucose) medium to mid log phase, aliquoted into 20% (v/v) glycerol and cryopreserved as stocks at -80°C. For each growth assay, cells from these stocks were diluted in sterile water to OD600 = 0.025, which corresponds to a final starting inoculum of 0.5–2.5 x 10^5 CFU/mL. Growth assays were carried out by pipetting 3 μL compound dissolved in DMSO, 100 μL cell suspension and 97 μL 2 x RPMI media (20.8 g/L RPMI-1640 (Sigma-Aldrich catalog number R6504) 330 mM MOPS, 36 g/L glucose) into a microtiter plate and incubating for 24 h at 34°C, followed by OD measurement at 490 nm. The minimum inhibitory concentration (MIC) was defined as 50% growth inhibition of the microorganism as this measurement best represented the antifungal activity of the compounds. Standard errors were typically below 5%.

In assay [2] the test system is Saccharomyces cerevisiae ATCC 9763. Kind of assay: Fungal growth inhibition, S. cerevisiae ATCC 9763. To be noted: ATCC9763, MIC defined as 50% growth inhibition, 24 h, n = 3–6. It counts as cell-based.
Source text: as §1

Assay [3] relates to S. cerevisiae cells. Put plainly: Membrane potential study (DiBAC4(3)). The assay is classed as cell-based, Saccharomyces cerevisiae. To be noted: 10 μM, 30 minutes exposure, compared to DMSO. How it is done: S. cerevisiae cells were grown to mid-log phase, pelleted at 2,000 x g for 2 minutes and washed twice in buffer A (100 mM MOPS and 1 mM KCl adjusted with Trizma base to pH 7.0). Cells were then resuspended in buffer A to an OD600 of 0.2. For each well 50 μL of buffer A with 3.3 μg/mL propidium iodide (PI) (Thermo Fisher Scientific, catalog number P1304MP) and 1 μg/mL DiBAC4(3) (Sigma-Aldrich, catalog number D8189)) was mixed with 50 μL S. cerevisiae cell suspension and transferred to a 96 well plate containing 1 μL of inhibitor (in DMSO). A lysis control was performed with Reagent Y100 (ChemoMetec). Five thousand cells were measured per experiment with an exposure time of 1000 ms using a NucleoCounter NC-3000 (ChemoMetec). Dark field was used as the masking channel to select the yeast cells, and the DiBAC4(3) ([…]) and PI (ex 630 nm, em 740/60 nm) channels were used to measure the membrane potential and membrane integrity, respectively. Only cells with a pixel size of 10–40 were included in the analysis, to avoid analysis of non-cell artifacts.

The target in assay [4] is T1, Mammalian Na^+,K^+-ATPase (Sus scrofa, UniProt P05024).
T1 construct: The pig kidney Na^+,K^+-ATPase purification included a mild SDS treatment of isolated microsomes; from tissue; host or cells: pig kidney microsomes, SDS-treated
Kind of assay: ATP hydrolysis inhibition, Na+,K+-ATPase. It counts as biochemical. To be noted: pig Na+,K+-ATPase, racemic compounds, n = 3. The source says:
All membrane batches were validated by determining ATPase activity, pH optimum and orthovanadate sensitivity. Sarco/endoplasmatic reticulum (SR) Ca^2+ ATPase was provided in SR membranes purified by extraction with a low concentration of deoxycholate (DOC) and was kindly provided by Claus E. Olesen and Jesper V. Møller, Aarhus University and prepared as described in [43]. The pig kidney Na^+,K^+-ATPase purification included a mild SDS treatment of isolated microsomes followed by a washing step and was kindly provided by Natalya Fedosova, Aarhus University and prepared as described in [44].
ATPase activity was determined by measuring the amount of liberated phosphate from ATP hydrolysis. The ATPase assay was performed in 96 well plates in a final reaction volume of 60 μL. 0.1–0.2 μg/well of DOC extracted SERCA membrane or the Na^+,K^+-ATPase was used, while 1–2.5 μg/well was used of the Pma1 membrane preparation. Reactions, including protein membrane preparation and various concentrations of exogenously added compounds, were conducted in the following buffers; Pma1 buffer: 17.5 mM MOPS-NaOH pH 7, 7 mM MgSO4, 44 mM KNO3 (vacuolar ATPase inhibitor), 22 mM NaN3 (mitochondrial ATPase inhibitor), 0.22 mM Na2MoO4 (acid phosphatase inhibitor); SERCA buffer: 9 mM MOPS-NaOH pH 7, 2.7 mM MgCl2, 0.1 mM CaCl2 and 72 mM KCl. Na^+,K^+-ATPase buffer: 30 mM MOPS-NaOH pH 7, 40 mM NaCl, 4 mM MgCl2 and 20 mM KCl. Reactions were initiated by the addition of Na-ATP to a final concentration of 2.5 mM (Pma1 and Na^+,K^+-ATPase) or 5 mM (SERCA), followed by 30 minutes incubation at 30°C. […] Absorption was measured at 860 nm after additional 30 minutes incubation at RT.

The test system of assay [5] is C. albicans (SC5314) cells. Put plainly: Time-kill assay. It counts as cell-based, Candida albicans. Particulars: for Reduction in CFU after 3 h exposure: 20 μM, compared to DMSO treated controls; for Fungicidal or fungistatic activity in time-kill (in words): AMB 0.54 μM, VRC 2.8 μM, 6 and 8 20 μM. The procedure:
C. albicans (SC5314) cells (1 x 10^5 CFU/mL) were incubated in 10 mL RPMI-1640 media at 30°C with gentle agitation (150 rpm) in the presence of amphotericin B (0.5 μM), voriconazole (2.8 μM) or tetrahydrocarbazole compound (20 μM). At the indicated time points (0, 3, 6, and 24 h), a 100 μL aliquot was removed, serially diluted (10 fold) in saline (0.9% NaCl), and 30 μL aliquots were spread on YPD agar. CFU were counted after incubation at 30°C for 48 h. C. albicans cells treated with DMSO (1%, v/v) served as a control. 50 CFU/mL was selected as the lower limit of quantitation.

In brackets after ≈: the same amount, converted by molar mass. Where only a bound is given, the exact number is not on record here.

As to `NC1CCCc2c1[nH]c1cc(OC(F)(F)F)ccc21` (centres unmarked) [Compound 4], the “Antifungal activity (in words)” value in assay [1] is “weak antifungal activity”. 7.5 µM (≈ 2.03 µg/mL) was the least that counted as inhibitory in assay [2] (MIC). Moreover, the “DiBAC4(3) fluorescence signal, membrane depolarization (in words)” value (shortened to “DiBAC4(3) fluorescence signal”) in assay [3] is listed as “No significant differences”. In assay [4], this molecule came in with an IC50 of 37.2 ± 13.6 µM.
With `CN1CCC(NC2CCCc3c2[nH]c2cc(OC(F)(F)F)ccc32)CC1` (centres unmarked) [Compound 5], in assay [1], the “Antifungal activity (in words)” value is reported as “weak antifungal activity”. The MIC in assay [2] was found to be 11.6 ± 8.1 µM (≈ 4.26 µg/mL). Moreover, the “DiBAC4(3) fluorescence signal” value in assay [3] is listed as “No significant differences”. The IC50 in assay [4] amounted to 132 ± 35.2 µM.
As for `FC(F)(F)Oc1ccc2c3c([nH]c2c1)C(NCc1ccc(Cl)cc1)CCC3` (centres unmarked) [Compound 6], in assay [5], the “Reduction in CFU after 3 h exposure” value is given as > 99% and the “Fungicidal or fungistatic activity in time-kill (in words)” value is recorded as “fungistatic activity after 24 h of incubation”. For the same molecule, the minimal inhibitory concentration (MIC) in assay [2] was determined as 5 ± 2.9 µM (≈ 1.97 µg/mL). In addition, the IC50 in assay [4] worked out at 0.72 ± 0.3 µM.
As for `FC(F)(F)Oc1ccc2c3c([nH]c2c1)C(NCc1ccc(Br)cc1)CCC3` (centres unmarked) [Compound 7], the MIC in assay [2] was 1.5 µM (≈ 0.659 µg/mL). The same molecule had a 50% inhibitory concentration (IC50) in assay [4] of 0.38 ± 0.12 µM.
As to `FC(F)(F)Oc1ccc2c3c([nH]c2c1)C(NCCOc1ccc(Cl)cc1)CCC3` (centres unmarked) [Compound 8], in assay [5], the “Reduction in CFU after 3 h exposure” value is > 99% and the “Fungicidal or fungistatic activity in time-kill (in words)” value is given as “fungistatic activity after 24 h of incubation”. In addition, in assay [2], the minimal inhibitory concentration (MIC) came to 6.2 ± 2.6 µM (≈ 2.63 µg/mL). The molecule also displayed an IC50 in assay [4] of 1.07 ± 0.38 µM.
With `FC(F)(F)Oc1ccc2[nH]c3c(c2c1)CCCC3NCc1ccc(-c2ccccn2)cc1` (centres unmarked) [Compound 9], the MIC in assay [2] was found to be 7.5 µM (≈ 3.28 µg/mL). For the same molecule, inhibition in assay [4] was half-maximal at 9.76 ± 4.47 µM (IC50).
The molecule `Clc1ccc2[nH]c3c(c2c1)CCCC3NCc1ccc(-c2ccccc2)cc1` (centres unmarked) [Compound 10] displayed an MIC in assay [2] of 7.5 µM (≈ 2.9 µg/mL). In assay [3], the “DiBAC4(3) fluorescence signal” value is listed as “slight increase”. In assay [4], the IC50 came to 5.5 ± 2.74 µM.
`Cn1c2c(c3cc(Cl)ccc31)CCCC2NCc1ccc(-c2ccccc2)cc1` (centres unmarked) [Compound 11]: the MIC in assay [1] and in assay [2] was > 20 µM each time. The 50% inhibitory concentration (IC50) in assay [4] was > 20 µM.
`CN(Cc1ccc(-c2ccccc2)cc1)C1CCCc2c1[nH]c1ccc(Cl)cc21` (centres unmarked) [Compound 12]: the MIC in assay [1] and in assay [2] was > 20 µM throughout. Moreover, the IC50 in assay [4] came out at 11.8 ± 6.8 µM.

As a reminder, the MIC is the lowest concentration found to suppress growth. A lower MIC goes with greater potency. As usually defined, the IC50 is the concentration that gives 50% inhibition.
